No end group written: not given here.
Tests used:
HUVEC monolayers = assay: Inhibition of thrombin-stimulated macromolecule (HRP) permeability of HUVEC monolayers; assay type: cell-based, human; details: 1 U/ml thrombin; for IC50: Homo sapiens, 1 h, HUVEC on Transwells, 1 μM RP73401, 10 μM Motapizone, 1 mM SNP or 100 nM ANP, HRP passage after 60 min, read-out: Inhibition of SNP- or ANP-induced permeability, -log IC50 (converted); for Effect on thrombin-induced hyperpermeability (HRP passage): 1 μM RP73401 together with 10 μM Motapizone, 60 min
Description: The procedure to measure macromolecule permeability of endothelial cell monolayers followed the method described by Langeler & van Hinsbergh (1988) with modifications. Human umbilical vein endothelial cells were isolated from umbilical cords according to standard procedures (Jaffe et al. 1973) and cultured in endothelial cell basal medium (EBM) supplemented with 2% FCS, 0.5 ng/ml VEGF, 10 ng/ml bFGF, 5 ng/ml EGF, 20 ng/ml Long R3 IGF-1, 0.2 μg/ml hydrocortisone, 1 μg/ml ascorbic acid, 22.5 μg/ml heparin, 50 μg/ml gentamicin, 50 ng/ml amphotericin B (EGM2 purchased from Promocell GmbH, Heidelberg, Germany). At confluency, cells were trypsinized and replated at 73000 cells per well on 3 μm polycarbonate filter Transwell inserts (Costar GmbH, Bodenheim, Germany) precoated with 10 μg cm^2−1 Fibronectin (Sigma, Taufkirchen, Germany). HUVECs were cultured in EGM2 (100 μl in the upper wells and 600 μl in the lower wells) over four days prior the experiments and medium was changed every other day. At the day of the experiment culture medium was replaced by M199 with 1% human serum albumin. Endothelial cells were preincubated with cyclic nucleotide modifiers (the selective PDE3 inhibitor motapizone, the selective PDE4 inhibitor RP73401, the cGMP generators ANP or SNP and PDE2 inhibitors) for 15 min. HUVECs were then stimulated with Thrombin (1 U ml^−1) (Sigma, Taufkichen, Germany) and horsh radish peroxidase (5 μg/ml) (Sigma, Taufkirchen, Germany) as the macromolecule marker protein was added to the upper wells. Following 1 h incubation time Transwells were removed and the activity of horsh radish peroxidase that penetrated the endothelial cell monolayer was measured in the lower wells with the 3,3′,5,5′-tetramethylbenzidine liquid substrate system from Sigma (Taufkirchen, Germany).
In parallel, compounds according to the invention can inhibit Thrombin-induced permeability of HUVEC monolayers for horsh radish peroxidase (HRP) as a macromolecule marker. […] The concentration-dependent inhibition of HRP permeability at different concentrations was assessed from the percent inhibition in the presence and absence of the PDE2 inhibitors and in the presence of 1 μM RP73401, 10 μM Motapizone and 100 nM ANP.
HUVEC cells on 3 μm polycarbonate filters (Transwells) were preincubated with 1 μM RP73401 (to block PDE4) and 10 μM Motapizone (to block PDE3), 1 mM SNP or 100 nM ANP and test sample over 15 min and then stimulated with 1 U/ml thrombin. HRP passage into the lower wells was assessed after 60 min.

Row | melting point | Compound | IC50 (HUVEC monolayers) | Effect on thrombin-induced hyperpermeability (HRP passage) (HUVEC monolayers) | Effect on the block of thrombin-induced hyperpermeability by RP73401 and Motapizone (HUVEC monolayers; 1 mM SNP or 100 nM ANP added to 1 μM RP73401 and 10 μM Motapizone)
1 | 301 to 304 °C | COc1ccc(Nc2nn3c(-c4ccc(OC)cc4)nnc3c3ccccc23)cc1 [Example 1, (4-Methoxyphenyl)-[3-(4-methoxyphenyl)-[1,2,4]triazolo[3,4-a]phthalazin-6-yl]-amine] | – | – | –
2 | – | COc1ccc(-c2nnc3c4ccccc4c(Nc4ccc(OC)c(OC)c4)nn23)cc1 [Example 2, (3,4-Dimethoxy-phenyl)-[3-(4-methoxy-phenyl)-[1,2,4]triazolo[3,4-a]phthalazin-6-yl]-amine] | 7.94 to 316 nM | – | –
3 | 260 °C | COc1ccc(-c2nnc3c4ccccc4c(Nc4cccc(OCc5ccccc5)c4)nn23)cc1 [Example 4, (3-Benzyloxyphenyl)-[3-(4-methoxyphenyl)-[1,2,4]triazolo[3,4-a]phthalazin-6-yl]-amine] | – | – | –
4 | 295 °C | COc1ccc(-c2nnc3c4ccccc4c(Nc4ccc(Cl)cc4)nn23)cc1 [Example 5, (4-Chlorophenyl)-[3-(4-methoxyphenyl)-[1,2,4]triazolo[3,4-a]phthalazin-6-yl]-amine] | – | – | –
5 | – | COc1ccc(-c2ccc(Nc3nn4c(-c5ccc(OC)cc5)nnc4c4ccccc34)cc2)cc1 [Example 6, (4′-Methoxybiphenyl-4-yl)-[3-(4-methoxyphenyl)-[1,2,4]triazolo[3,4-a]phthalazin-6-yl]-amine] | 7.94 to 316 nM | – | –
6 | – | COc1ccc(-c2nnc3c4ccccc4c(Nc4cccc(OC)c4)nn23)cc1 [Example 7, (3-Methoxyphenyl)-[3-(4-methoxyphenyl)-[1,2,4]triazolo[3,4-a]phthalazin-6-yl]-amine] | 7.94 to 316 nM | – | –
7 | 275.5 °C | COc1ccc(-c2nnc3c4ccccc4c(Nc4ccc(Oc5ccccc5)cc4)nn23)cc1 [Example 8, [3-(4-Methoxyphenyl)-[1,2,4]triazolo[3,4-a]phthalazin-6-yl]-(4-phenoxyphenyl)-amine] | 7.94 to 316 nM | – | –
8 | – | COc1ccc(-c2nnc3c4ccccc4c(Nc4cccc(Oc5ccccc5)c4)nn23)cc1 [Example 9, [3-(4-Methoxyphenyl)-[1,2,4]triazolo[3,4-a]phthalazin-6-yl]-(3-phenoxyphenyl)-amine] | 7.94 to 316 nM | – | –
9 | 297 °C | COc1ccc(-c2nnc3c4ccccc4c(Nc4ccc(OCc5ccccc5)cc4)nn23)cc1 [Example 10, (4-Benzyloxyphenyl)-[3-(4-methoxyphenyl)-[1,2,4]triazolo[3,4-a]phthalazin-6-yl]-amine] | 7.94 to 316 nM | – | –
10 | 311 °C | COc1ccc(-c2nnc3c4ccccc4c(Nc4ccc(C)cc4)nn23)cc1 [Example 11, [3-(4-Methoxyphenyl)-[1,2,4]triazolo[3,4-a]phthalazin-6-yl]-p-tolyl-amine] | 7.94 to 316 nM | – | –
11 | 297.5 °C | CCOc1ccc(Nc2nn3c(-c4ccc(OC)cc4)nnc3c3ccccc23)cc1 [Example 12, (4-Ethoxyphenyl)-[3-(4-methoxyphenyl)-[1,2,4]triazolo[3,4-a]phthalazin-6-yl]-amine] | 7.94 to 316 nM | – | –
12 | 314 °C | COc1ccc(-c2nnc3c4ccccc4c(Nc4ccc(N5CCOCC5)cc4)nn23)cc1 [Example 13, [3-(4-Methoxyphenyl)-[1,2,4]triazolo[3,4-a]phthalazin-6-yl]-(4-morpholin-4-yl-phenyl)-amine] | 7.94 to 316 nM | – | –
13 | 300 °C | COc1ccc(-c2nnc3c4ccccc4c(Nc4ccc(OC(F)(F)F)cc4)nn23)cc1 [Example 14, [3-(4-Methoxyphenyl)-[1,2,4]triazolo[3,4-a]phthalazin-6-yl]-(4-trifluoromethoxyphenyl)-amine] | 7.94 to 316 nM | – | –
14 | 295 °C | COc1ccc(-c2nnc3c4ccccc4c(Nc4ccc(CC#N)cc4)nn23)cc1 [Example 15, {4-[3-(4-Methoxyphenyl)-[1,2,4]triazolo[3,4-a]phthalazin-6-ylamino]-phenyl}-acetonitrile] | 7.94 to 316 nM | – | –
15 | 326 °C | COc1ccc(-c2nnc3c4ccccc4c(Nc4ccc(SC)cc4)nn23)cc1 [Example 16, [3-(4-Methoxyphenyl)-[1,2,4]triazolo[3,4-a]phthalazin-6-yl]-(4-methylsulfanylphenyl)-amine] | 7.94 to 316 nM | – | –
16 | 306 °C | c1ccc(Oc2ccc(-c3nnc4c5ccccc5c(Nc5ccc(N6CCOCC6)cc5)nn34)cc2)cc1 [Example 17, (4-Morpholin-4-yl-phenyl)-[3-(4-phenoxyphenyl)-[1,2,4]triazolo[3,4-a]phthalazin-6-yl]-amine] | 7.94 to 316 nM | – | –
17 | 266 °C | COc1ccc(-c2nnc3c4ccccc4c(Nc4ccc(N5CCN(C)CC5)cc4)nn23)cc1 [Example 18, [3-(4-Methoxyphenyl)-[1,2,4]triazolo[3,4-a]phthalazin-6-yl]-[4-(4-methylpiperazin-1-yl)-phenyl]-amine] | 7.94 to 316 nM | – | –
18 | – | COC(=O)c1cccc(-c2nnc3c4ccccc4c(Nc4ccc(N5CCOCC5)cc4)nn23)c1 [Example 19, 3-[6-(4-Morpholin-4-yl-phenylamino)-[1,2,4]triazolo[3,4-a]phthalazin-3-yl]-benzoic acid methyl ester] | 7.94 to 316 nM | – | –
19 | 322 °C | c1ccc2c(c1)c(Nc1ccc(N3CCOCC3)cc1)nn1c(-c3ccc(N4CCOCC4)cc3)nnc21 [Example 20, (4-Morpholin-4-yl-phenyl)-[3-(4-morpholin-4-yl-phenyl)-[1,2,4]triazolo[3,4-a]phthalazin-6-yl]-amine] | – | – | –
20 | 303 °C | COC(=O)c1ccc(-c2nnc3c4ccccc4c(Nc4ccc(N5CCOCC5)cc4)nn23)cc1 [Example 22, 4-[6-(4-Morpholin-4-yl-phenylamino)-[1,2,4]triazolo[3,4-a]phthalazin-3-yl]-benzoic acid methyl ester] | – | – | –
21 | – | CCOc1cccc(Nc2nn3c(-c4ccc(OC)cc4)nnc3c3ccccc23)c1 [Example 23, (3-Ethoxyphenyl)-[3-(4-methoxyphenyl)-[1,2,4]triazolo[3,4-a]phthalazin-6-yl]-amine] | 7.94 to 316 nM | – | –
22 | – | COc1ccc(-c2nnc3c4ccccc4c(Nc4cccc(OC(F)(F)F)c4)nn23)cc1 [Example 24, [3-(4-Methoxyphenyl)-[1,2,4]triazolo[3,4-a]phthalazin-6-yl]-(3-trifluoromethoxyphenyl)-amine] | 7.94 to 316 nM | – | –
23 | 306 °C | c1ccc(-c2nnc3c4ccccc4c(Nc4ccc(N5CCOCC5)cc4)nn23)cc1 [Example 25, (4-Morpholin-4-ylphenyl)-(3-phenyl-[1,2,4]triazolo[3,4-a]phthalazin-6-yl)-amine] | 7.94 to 316 nM | – | –
24 | 317 °C | Oc1ccccc1-c1nnc2c3ccccc3c(Nc3ccc(N4CCOCC4)cc3)nn12 [Example 26, 2-[6-(4-Morpholin-4-yl-phenylamino)-[1,2,4]triazolo[3,4-a]phthalazin-3-yl]-phenol] | 7.94 to 316 nM | – | –
25 | 218 °C | COc1ccc(-c2nnc3c4ccccc4c(Nc4cc(OC)cc(OC)c4)nn23)cc1 [Example 27, (3,5-Dimethoxyphenyl)-[3-(4-methoxyphenyl)-[1,2,4]triazolo[3,4-a]phthalazin-6-yl]-amine] | 7.94 to 316 nM | – | –
26 | 247 °C | COc1ccc(-c2nnc3c4ccccc4c(Nc4cccc(OC(F)F)c4)nn23)cc1 [Example 28, [3-(1,1-Difluoromethoxy)-phenyl]-[3-(4-methoxyphenyl)-[1,2,4]triazolo[3,4-a]phthalazin-6-yl]-amine] | 7.94 to 316 nM | – | –
27 | 314 to 316 °C | COc1ccc(-c2nnc3c4ccccc4c(Nc4ccc(Br)cc4)nn23)cc1 [Example 31, (4-Bromo-phenyl)-[3-(4-methoxy-phenyl)-[1,2,4]triazolo[3,4-a]phthalazin-6-yl]-amine] | – | – | –
28 | – | CC1CC(=O)NN=C1c1cc(-n2ccnc2)cs1 (centres unmarked) [Motapizone, reference compound] | – | completely blocked | –
29 | – | COc1ccc(C(=O)Nc2c(Cl)cncc2Cl)cc1OC1CCCC1 [RP73401, reference compound] | – | completely blocked | –
30 | – | ANP: cGMP generator (SLRRSSCFGGRMDRIGAQSGLGCNSFRY; ends and bridges not checked; cysteine pairing not given here; UniProt P01160 124-151, looked up) [reference compound] | – | – | partially reversed

— patent publication US7671050B2, “Triazolophthalazines” (NYCOMED GmbH, priority 2005, dated 2010)
